Test results taken from ChEMBL document CHEMBL4393695, “Thiazole orange - Spermine conjugate: A potent human telomerase inhibitor comparable to BRACO-19” (Eur J Med Chem, 2019).
Active and inactive are the calls of the source. No cut-off for these calls is given here.

What was measured:
Quadruplex DNA [1] = assay: Binding affinity to G-quadruplex G2 DNA (unknown origin) assessed as increase in deltaTm at compound to DNA ratio of 10:1 by fluorescence thermal denaturation analysis; type: nucleic-acid assay
[2] = Ratio of Kd for human G-quadruplex G1 DNA to Kd for 17 mer duplex D1 DNA (unknown origin) by flourimetric titration analysis
HeLa [3] = assay: Inhibition of DNA polymerase activity in human HeLa cell lysate at 0.625 to 10 uM in presence of [32P]-labeled template primer by TRAP assay; type: subcellular
Quadruplex DNA [4] = assay: Binding affinity to human G-quadruplex G1 DNA assessed as equilibrium dissociation constant at 0.5 uM incubated for 30 mins under dark condition by fluorometric titration analysis; type: nucleic-acid assay
[5] = biological target: Telomerase reverse transcriptase (Homo sapiens) (UniProt O14746); assay: Inhibition of telomerase activity in human HeLa cell lysate at 6.25 uM in presence of [32P]-labeled template primer by TRAP assay; type: subcellular
dsDNA = assay: Binding affinity to 17 mer duplex D1 DNA (unknown origin) assessed as equilibrium dissociation constant at 0.5 uM incubated for 30 mins under dark condition by fluorometric titration analysis; type: nucleic-acid assay
Quadruplex DNA [6] = assay: Binding affinity to G-quadruplex G1 DNA (unknown origin) assessed as melting temperature at compound to DNA ratio of 4:1 in presence of 150 mM Na+ by circular dichroism thermal denaturation analysis (reference value: 57.4 degC); type: nucleic-acid assay
Quadruplex DNA [7] = assay: Binding affinity to human G-quadruplex G1 DNA assessed as increase in fluorescence at 0.5 uM incubated for 30 mins in dark by fluorescence titration analysis relative to control; type: nucleic-acid assay
Quadruplex DNA [8] = assay: Binding affinity to G-quadruplex G1 DNA (unknown origin) assessed as melting temperature at compound to DNA ratio of 4:1 in presence of 100 mM K+ by circular dichroism thermal denaturation analysis (Rvb= 52.6 degC); type: nucleic-acid assay
HeLa [9] = assay: Inhibition of DNA polymerase activity in human HeLa cell lysate at 6.25 uM in presence of [32P]-labeled template primer by TRAP assay; type: subcellular
[10] = biological target: Telomerase reverse transcriptase (Homo sapiens) (UniProt O14746); assay: Inhibition of telomerase activity in human HeLa cell lysate in presence of [32P]-labeled template primer by TRAP assay; type: subcellular
[11] = biological target: Telomerase reverse transcriptase (Homo sapiens) (UniProt O14746); details: HeLa, Lysate, 10 to 100 uM
Description: Inhibition of telomerase activity in human HeLa cell lysate at 10 to 100 uM in presence of [32P]-labeled template primer by TRAP assay

HeLa [12] = details: Homo sapiens, Lysate, 10 to 100 uM
Description: Inhibition of DNA polymerase activity in human HeLa cell lysate at 10 to 100 uM in presence of [32P]-labeled template primer by TRAP assay

HeLa [13] = assay: Inhibition of DNA polymerase activity in human HeLa cell lysate at 50 uM in presence of [32P]-labeled template primer by TRAP assay; type: subcellular
[14] = biological target: Telomerase reverse transcriptase (Homo sapiens) (UniProt O14746); details: HeLa, Lysate, 50 uM
Description: Inhibition of telomerase activity in human HeLa cell lysate at 50 uM in presence of [32P]-labeled template primer by TRAP assay

HeLa [15] = assay: Inhibition of DNA polymerase activity in human HeLa cell lysate at <10 uM in presence of [32P]-labeled template primer by TRAP assay; type: subcellular
[16] = biological target: Telomerase reverse transcriptase (Homo sapiens) (UniProt O14746); assay: Inhibition of telomerase activity in human HeLa cell lysate at 10 uM in presence of [32P]-labeled template primer by TRAP assay; type: subcellular
[17] = biological target: Telomerase reverse transcriptase (Homo sapiens) (UniProt O14746); assay: Inhibition of telomerase activity in human HeLa cell lysate at 0.625 uM in presence of [32P]-labeled template primer by TRAP assay; type: subcellular
[18] = biological target: Telomerase reverse transcriptase (Homo sapiens) (UniProt O14746); assay: Inhibition of telomerase activity in human HeLa cell lysate at <10 uM in presence of [32P]-labeled template primer by TRAP assay; type: subcellular
Quadruplex DNA [19] = assay: Binding affinity to G-quadruplex G2 DNA (unknown origin) assessed as change in melting temperature at compound to DNA ratio of 7:1 by fluorescence thermal denaturation analysis; type: nucleic-acid assay
HeLa [20] = assay: Inhibition of DNA polymerase activity in human HeLa cell lysate at 10 uM in presence of [32P]-labeled template primer by TRAP assay; type: subcellular
HeLa [21] = assay: Inhibition of DNA polymerase activity in human HeLa cell lysate at 6.25 uM in presence of [32P]-labeled template primer by TRAP assay relative to control; type: subcellular
[22] = biological target: Telomerase reverse transcriptase (Homo sapiens) (UniProt O14746); assay: Inhibition of telomerase activity in human HeLa cell lysate at 0.156 to 2.5 uM in presence of [32P]-labeled template primer by TRAP assay; type: subcellular
HeLa [23] = assay: Inhibition of DNA polymerase activity in human HeLa cell lysate at 0.156 to 2.5 uM in presence of [32P]-labeled template primer by TRAP assay; type: subcellular
[24] = biological target: Telomerase reverse transcriptase (Homo sapiens) (UniProt O14746); assay: Inhibition of telomerase activity in human HeLa cell lysate at 6.25 uM in presence of [32P]-labeled template primer by TRAP assay relative to control; type: subcellular
[25] = biological target: Telomerase reverse transcriptase (Homo sapiens) (UniProt O14746); assay: Inhibition of telomerase activity in human HeLa cell lysate at 0.078 uM in presence of [32P]-labeled template primer by TRAP assay; type: subcellular
HeLa [26] = assay: Inhibition of DNA polymerase activity in human HeLa cell lysate at 5 uM in presence of [32P]-labeled template primer by TRAP assay; type: subcellular
[27] = biological target: Telomerase reverse transcriptase (Homo sapiens) (UniProt O14746); assay: Inhibition of telomerase activity in human HeLa cell lysate at 5 uM in presence of [32P]-labeled template primer by TRAP assay; type: subcellular
Quadruplex DNA [28] = assay: Ratio of thiazole orange Kd to compound Kd for human G-quadruplex G1 DNA at 0.5 uM incubated for 30 mins in dark by fluorimetric titration analysis; type: nucleic-acid assay

Telomerase reverse transcriptase (Homo sapiens), sequence (O14746 whole entry): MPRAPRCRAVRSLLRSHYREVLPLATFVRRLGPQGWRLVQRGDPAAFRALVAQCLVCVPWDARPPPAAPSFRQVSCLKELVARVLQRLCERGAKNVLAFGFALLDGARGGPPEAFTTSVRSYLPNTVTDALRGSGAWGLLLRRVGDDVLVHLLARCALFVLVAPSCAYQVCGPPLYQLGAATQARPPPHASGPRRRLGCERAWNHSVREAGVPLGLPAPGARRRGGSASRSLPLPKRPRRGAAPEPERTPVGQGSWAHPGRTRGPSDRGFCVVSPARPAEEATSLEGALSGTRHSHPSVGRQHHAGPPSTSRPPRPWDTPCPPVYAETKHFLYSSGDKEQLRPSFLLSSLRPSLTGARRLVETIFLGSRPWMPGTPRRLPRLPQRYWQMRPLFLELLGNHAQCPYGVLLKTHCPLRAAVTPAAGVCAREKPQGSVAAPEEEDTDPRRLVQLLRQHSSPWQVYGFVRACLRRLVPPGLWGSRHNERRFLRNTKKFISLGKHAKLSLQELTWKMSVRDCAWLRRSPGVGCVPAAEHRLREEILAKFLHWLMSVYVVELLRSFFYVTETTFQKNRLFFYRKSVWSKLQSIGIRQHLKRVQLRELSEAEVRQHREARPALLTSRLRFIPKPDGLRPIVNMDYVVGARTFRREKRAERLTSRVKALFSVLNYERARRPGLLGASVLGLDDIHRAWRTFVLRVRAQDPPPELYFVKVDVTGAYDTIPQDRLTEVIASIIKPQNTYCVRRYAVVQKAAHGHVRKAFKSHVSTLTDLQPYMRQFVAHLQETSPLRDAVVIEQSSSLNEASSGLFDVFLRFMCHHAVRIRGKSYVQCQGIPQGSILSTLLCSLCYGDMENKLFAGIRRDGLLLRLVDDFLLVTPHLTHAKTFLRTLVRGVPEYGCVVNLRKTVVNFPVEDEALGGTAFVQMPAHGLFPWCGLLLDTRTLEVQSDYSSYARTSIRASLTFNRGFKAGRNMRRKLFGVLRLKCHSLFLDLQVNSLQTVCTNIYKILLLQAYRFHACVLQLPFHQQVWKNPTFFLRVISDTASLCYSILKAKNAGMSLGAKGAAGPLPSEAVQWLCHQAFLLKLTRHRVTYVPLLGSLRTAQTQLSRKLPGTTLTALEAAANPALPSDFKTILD

| SMILES | Activity (Quadruplex DNA [1]) | Ratio [2] | inhibition [5] | Tm (Quadruplex DNA [6]) [°C] | fold change (FC) (Quadruplex DNA [7]) | Tm (Quadruplex DNA [8]) [°C] | inhibition (HeLa [9]) | also measured |
| --- | --- | --- | --- | --- | --- | --- | --- | --- |
| C[n+]1c(/C=C2\C=CN(CC(=O)NCCN3CCCCC3)c3ccccc32)sc2ccccc21 | Active | 4.18 | Active | 56 | 200 | 64 | inactive | inhibition (HeLa [3]): inactive; Kd (Quadruplex DNA [4]): 1130 nM; Kd (dsDNA): 270 nM; EC [10]: 5 µM |
| CN1/C(=C/c2cc[n+](C)c3ccccc23)Sc2ccccc21 | – | 2.18 | Active | 60 | 340 | 63.4 | – | – |
| NCCCNCCCCNCCCN | – | – | – | – | – | – | – | inhibition [11]: inactive; inhibition (HeLa [12]): inactive |
| C[n+]1ccc(-c2c3nc(c(-c4cc[n+](C)cc4)c4ccc([nH]4)c(-c4cc[n+](C)cc4)c4ccc([nH]4)c(-c4cc[n+](C)cc4)c4nc2C=C4)C=C3)cc1 | – | – | – | – | – | – | – | inhibition (HeLa [13]): Active; inhibition [14]: Active |
| C[n+]1c(/C=C2\C=CN(CC(=O)NCCOCCN3CCCC3)c3ccccc32)sc2ccccc21 | Active | 2.7 | Active | 60.5 | 200 | 59.7 | inactive | Kd (Quadruplex DNA [4]): 1650 nM; Kd (dsDNA): 610 nM |
| C[n+]1c(/C=C2\C=CN(CC(=O)NCCN)c3ccccc32)sc2ccccc21 | Active | – | inactive | 57.5 | – | 59.2 | inactive | – |
| C[n+]1c(/C=C2\C=CN(CC(=O)NCCCCCCN)c3ccccc32)sc2ccccc21 | Active | – | Active | 60 | – | 62.3 | inactive | – |
| C[n+]1c(/C=C2\C=CN(CC(=O)O)c3ccccc32)sc2ccccc21 | – | – | inactive | 57.1 | – | 54 | inactive | – |
| C[n+]1c(/C=C2\C=CN(CC(=O)NCCOCCOCCOCCN)c3ccccc32)sc2ccccc21 | Active | – | inactive | 57 | – | 59.4 | inactive | – |
| C[n+]1c(/C=C2\C=CN(CC(=O)NCCOCCN3CCCCC3)c3ccccc32)sc2ccccc21 | Active | 3.57 | Active | 60.5 | 200 | 64.9 | inactive | Kd (Quadruplex DNA [4]): 2180 nM; Kd (dsDNA): 710 nM |
| C[n+]1c(/C=C2\C=CN(CC(=O)NCCOCCN)c3ccccc32)sc2ccccc21 | Active | – | inactive | 56 | – | 58.7 | inactive | – |
| C/C(=C\C(=O)Nc1ccccc1C(=O)O)c1ccc2ccccc2c1 | – | – | – | – | – | – | – | inhibition [14]: Active |
| C[n+]1c(/C=C2\C=CN(CC(=O)NCCNCCNCCN)c3ccccc32)sc2ccccc21 | Active | – | Active | 58.5 | – | 62.4 | inactive | inhibition (HeLa [15]): inactive; inhibition [16]: Active; inhibition [17]: inactive; inhibition [18]: Active |
| CN1C=C/C(=C\c2sc3ccccc3[n+]2C)c2ccccc21 | – | – | – | – | – | – | – | Kd (Quadruplex DNA [4]): 870 nM; Kd (dsDNA): 400 nM |
| C[n+]1c(/C=C2\C=CN(CC(=O)NCCCN)c3ccccc32)sc2ccccc21 | Active | – | inactive | 56.5 | – | 60.2 | inactive | – |
| C[n+]1c(/C=C2\C=CN(CC(=O)NCCN3CCCC3)c3ccccc32)sc2ccccc21 | – | 0.79 | Active | 62.5 | 200 | 69.4 | inactive | inhibition (HeLa [3]): inactive; KdH (Quadruplex DNA [4]): 0.3 µM; KdL (Quadruplex DNA [4]): 1.77 µM; Kd (dsDNA): 380 nM; ΔTm (Quadruplex DNA [19]): 7.1 °C; EC [10]: 2.5 µM |
| C[n+]1c(/C=C2\C=CN(CC(=O)NCCCNCCCN)c3ccccc32)sc2ccccc21 | Active | 2.8 | Active | 61.5 | 200 | 60.5 | inactive | inhibition (HeLa [15]): inactive; inhibition [16]: Active; KdH (Quadruplex DNA [4]): 0.14 µM; KdL (Quadruplex DNA [4]): 0.95 µM; KdH (dsDNA): 0.05 µM; KdL (dsDNA): 0.92 µM; inhibition [17]: Active; inhibition [18]: Active; inhibition (HeLa [20]): Active |
| O=C1c2ccc3c4ccc5c6c(ccc(c7ccc(c2c37)C(=O)N1CCN1CCCCC1)c64)C(=O)N(CCN1CCCCC1)C5=O | – | – | – | – | – | – | – | inhibition [16]: inactive |
| C[n+]1c(/C=C2\C=CN(CC(=O)NCCCNCCCCNCCCN)c3ccccc32)sc2ccccc21 | – | 2.33 | – | 65 | 200 | 71 | – | inhibition [16]: 100%; inhibition (HeLa [21]): 100%; KdH (Quadruplex DNA [4]): 0.07 µM; KdL (Quadruplex DNA [4]): 1.73 µM; inhibition [22]: Active; KdH (dsDNA): 0.03 µM; KdL (dsDNA): 0.65 µM; inhibition (HeLa [23]): inactive; ΔTm (Quadruplex DNA [19]): 6.9 °C; inhibition [24]: 100%; inhibition [25]: inactive; inhibition (HeLa [26]): Active; inhibition [27]: 100%; Ratio (Quadruplex DNA [28]): 12.4; inhibition (HeLa [20]): 100% |
